Like-named read-outs stand apart in the source and are kept apart here.
Target: T1, RipN (Ralstonia pseudosolanacearum, UniProt Q8XQT8)
T1 construct: gene RSp1130
Conditions: Mg2+ important, NEBuffer 3, 30 min

T1 sequence (Q8XQT8 1-474): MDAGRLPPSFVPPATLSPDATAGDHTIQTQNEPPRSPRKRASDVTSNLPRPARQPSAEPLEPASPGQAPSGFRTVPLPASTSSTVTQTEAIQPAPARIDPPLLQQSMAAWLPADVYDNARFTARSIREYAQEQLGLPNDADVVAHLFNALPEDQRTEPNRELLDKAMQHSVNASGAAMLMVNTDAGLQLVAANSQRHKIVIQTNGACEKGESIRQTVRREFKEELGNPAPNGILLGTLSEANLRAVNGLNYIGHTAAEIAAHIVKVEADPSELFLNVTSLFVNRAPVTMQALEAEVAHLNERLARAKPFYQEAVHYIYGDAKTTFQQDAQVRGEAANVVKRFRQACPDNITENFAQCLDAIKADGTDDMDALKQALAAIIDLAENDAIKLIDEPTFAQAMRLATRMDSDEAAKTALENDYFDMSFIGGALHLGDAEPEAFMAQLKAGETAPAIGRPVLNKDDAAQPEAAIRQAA

Structure (SMILES)	phosphate colorimetric assay coupled to alkaline phosphatase	phosphate colorimetric assay coupled to alkaline phosphatase (optimum pH 7.9-8.5)
NC(=O)C1=CN([C@@H]2O[C@H](COP(=O)(O)OP(=O)(O)OC[C@H]3O[C@@H](n4cnc5c(N)ncnc54)[C@H](O)[C@@H]3O)[C@@H](O)[C@H]2O)C=CC1 [NADH]	with ADPr and NADH being the preferred substrates in vitro	–
Nc1ncnc2c1ncn2[C@@H]1O[C@H](COP(=O)(O)OP(=O)(O)OC[C@H]2OC(O)[C@H](O)[C@@H]2O)[C@@H](O)[C@H]1O (some centres unmarked) [ADPr]	–	RipN can hydrolyse ADPr, NADH, NAD, FAD (flavin adenine dinucleotide) and Ap4A
